In PubChem BioAssay (NCI):
Values joined by “and” are separate entries in the source; they are usually repeats but may differ in a detail not shown here. Equal entries are not always repeated.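 The compound was tested at five concentrations on cells cultured in 96-well plates, with a 48-hour exposure period. GI50: concentration for 50% inhibition of growth. TGI denotes the concentration required for complete inhibition of growth.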

Columns and labels:
Assay in all cases: inhibition of tumour cell growth, NCI panel, 48 h
[1] = tested on: T-47D breast
[2] = tested on: SK-MEL-2 melanoma
[3] = tested on: MCF7 breast
[4] = tested on: SF-295 CNS
[5] = tested on: SW-620 colon
[6] = tested on: SK-OV-3 ovarian
[7] = tested on: UACC-257 melanoma
[8] = tested on: ACHN renal
[9] = tested on: BT-549 breast
[10] = tested on: MALME-3M melanoma

Row | SMILES | TGI [1] [µM] | TGI [2] | TGI [3] | TGI [4] | TGI [5] | TGI [6] | TGI [7] [µM] | TGI [8] [µM] | TGI [9] [µM] | TGI [10] | GI50 [2] [µM] | GI50 [3] [µM] | GI50 [4] [µM] | GI50 [5] [µM] | GI50 [6] [µM] | GI50 [10] [µM] | GI50 [1] [µM] | GI50 [7] [µM] | GI50 [8] [µM] | GI50 [9] [µM]
1 | COc1ccc(C(SC2C(O)C(CO)OC2n2ccc(=O)[nH]c2=O)(c2ccccc2)c2ccc(OC)cc2)cc1 (stereo unspecified) | 48.7 | 31.4 µM | 43.7 µM | 43.3 µM | 63.6 µM | 84.7 µM | 33.5 | 81.5 | 33.6 | 36.7 µM | – | – | – | – | – | – | – | – | – | –
2 | CCOC(=O)c1cc(C)nc2c1c(=O)n(-c1ccccc1)c(=O)n2CCCCN1CCN(c2ccccc2)CC1 | > 100 | > 100 µM | > 100 µM | > 100 µM | > 100 µM | > 100 µM | 99.8 | > 100 | > 100 | > 100 µM | – | – | – | – | – | – | – | – | – | –
3 | CN(Cc1cnc2nc(N)nc(N)c2n1)c1ccc(C(=O)NC(CO)CCCO)cc1 (stereo unspecified) | > 100 | > 100 µM | > 100 µM | > 100 µM | > 100 µM | > 100 µM | > 100 | > 100 | > 100 | > 100 µM | – | – | – | – | – | – | – | – | – | –
4 | CN(C)CCCNc1ccc2nnn3c4ccc(O)cc4c(=O)c1c23 | 40.9 | 26.3 µM | 24.8 µM | 18.7 µM | 17.2 µM | 23.4 µM | 29.8 | 13.5 | 33.9 | 23.1 µM | – | – | – | – | – | – | – | – | – | –
5 | O=C(O)COc1cc(-c2ccccc2)nc2cc(F)ccc12 | > 100 | > 100 µM | > 100 µM | > 100 µM | > 100 µM | > 100 µM | > 100 | > 100 | > 100 | > 100 µM | – | – | – | – | – | – | – | – | – | –
6 | O=[N+]([O-])c1cccc(N=Nc2c(O)c(S(=O)(=O)O)cc3cc(S(=O)(=O)O)ccc23)c1 | > 100 | > 100 µM | > 100 µM | > 100 µM | > 100 µM | > 100 µM | > 100 | > 100 | > 100 | > 100 µM | – | – | – | – | – | – | – | – | – | –
7 | O=C1c2c(O)cccc2-c2nn(CCNCCO)c3ccc(NCCNCCO)c1c23 | 4.61 | 1.38 µM | 3.15 µM | 1.39 µM | 7.09 µM | 1.14 µM | 5.69 | 0.992 | 1.42 | 1.12 µM | – | – | – | – | – | – | – | – | – | –
8 | O=C1CC(=O)n2cnc3cccc(c32)N1 | > 100 | > 100 µM | > 100 µM | > 100 µM | > 100 µM | > 100 µM | > 100 | – | > 100 | > 100 µM | – | – | – | – | – | – | – | – | – | –
9 | Cc1ccc(S(=O)CC(CF)OCn2cc(C)c(=O)[nH]c2=O)cc1 (stereo unspecified) | > 100 | > 100 µM | > 100 µM | > 100 µM | > 100 µM | > 100 µM | – | > 100 | > 100 | > 100 µM | – | – | – | – | – | – | – | – | – | –
10 | COc1cc(C2C(Cl)C(=O)N2c2c(C)n(C)n(-c3ccccc3)c2=O)ccc1O (stereo unspecified) | > 100 | 50.4 µM | 48.7 µM | 50 µM | 36.4 µM | 80.2 µM | 40.7 | 34.9 | 45 | 61.9 µM | – | – | – | – | – | – | – | – | – | –
11 | Cc1nc(N)c(N2CCN(CN)CC2)c(=O)[nH]1 | > 100 | > 100 µM | > 100 µM | > 100 µM | > 100 µM | – | > 100 | > 100 | > 100 | > 100 µM | – | – | – | – | – | – | – | – | – | –
12 | CC(C)(C)CC(C)(C)c1cc(O)c(O)c(CN2CCCCC2)c1 | 33.9 | – | 25.1 µM | 32.3 µM | 28 µM | 34.8 µM | 26.1 | 25.6 | 28.4 | 25.9 µM | – | – | – | – | – | – | – | – | – | –
13 | C=C=C(CC(CC(=C)Br)(C(=O)OC)C(=O)OC)S(=O)(=O)c1ccccc1 | > 100 | 8.22 µM | 16.4 µM | 26.9 µM | 2.99 µM | 30.2 µM | 5.88 | 6.83 | 3.18 | 4.11 µM | – | – | – | – | – | – | – | – | – | –
14 | N#Cc1cc2c(n(C3OC(CO)C(O)C(O)C3O)c1=S)CCCCCC2 (stereo unspecified) | > 100 | > 100 µM | > 100 µM | > 100 µM | > 100 µM | – | > 100 | > 100 | > 100 | > 100 µM | – | – | – | – | – | – | – | – | – | –
15 | CC1=C2C(=CO[C@H](C)[C@H]2C)C(=O)C(C(=O)O)=C1O | > 94.5 | 48.1 µM and 37.5 µM | 52.8 µM and 51.9 µM | 97.1 µM and 61.3 µM | > 74.5 µM and 77.4 µM | 88 µM and 150 µM | > 87.8 | 46.7 | 37.1 | 54.4 µM and 115 µM | 18.7 | 24.5 | 24.7 | 26.9 | 28 | 21 | – | – | – | –
16 | COc1cnc2c(c1)C(=O)c1c-2n(CCCNCCO)c(=O)c2ccncc12 | 37.5 | 4.75 µM | 11.3 µM | 7.89 µM | 12.4 µM | 61.3 µM | 9.02 | 9.93 | 12.7 | 2.82 µM | 1.81 | 0.303 | 0.912 | 0.52 | 3.94 | 1.1 | 0.845 | 2.18 | 0.553 | 2.03
17 | O=C(CCN1CCN2c3ccccc3CCC2C1)c1ccc(F)cc1 (stereo unspecified) | 45.9 | 53.3 µM | 51.3 µM | > 100 µM | > 100 µM | > 100 µM | 97.1 | 43.3 | 50 | 49.2 µM | – | – | – | – | – | – | – | – | – | –
18 | O=C1OC[C@H]2[C@@H]1[C@H]1O[C@@H]2C2=C(CCC2)C1=O | > 100 | > 100 µM | > 100 µM | > 100 µM | > 100 µM | > 100 µM | > 100 | > 100 | > 100 | > 100 µM | – | – | – | – | – | – | – | – | – | –
19 | Nc1ccc(S(=O)(=O)Nc2nc3ccccc3nc2N2CCCCCC2)cc1 | > 100 | 40.8 µM | > 100 µM | 57.3 µM | 54.1 µM | > 100 µM | > 100 | > 100 | 28.2 | 85.9 µM | – | – | – | – | – | – | – | – | – | –
20 | O=C(Cc1ccc(Cl)c(Cl)c1)NCC1(N2CCCCC2)CCCCC1 | 89.7 | > 100 µM | > 100 µM | > 100 µM | > 100 µM | > 100 µM | 36.7 | > 100 | > 100 | 47.2 µM | – | – | – | – | – | – | – | – | – | –
